Publication PMC4104761, “Identification of a novel lytic peptide for the treatment of solid tumours” (Genes & Cancer, 2014)

Tested on: U87 cells
Assay: Comparison of peptide variants by crystal violet staining and light microscopy
Details: U87 cells; 7.5, 10, 15, 20 and 25 µg/ml; 3 hours incubation
Excerpt: The sizes of the resulting in silico peptides varied from 10 to 30 amino acids. In order to facilitate their cellular internalisation, a TAT-HIV sequence was attached to the C-terminal ends. All peptides were […]. The peptide library was produced by Cambridge Peptides (Cambridge, UK). The peptides were then screened with the MTT (3-(4,5-dimethylthiazol-2-yl)-2,5-diphenyltetrazolium bromide) assay on U87 human glioma cells. Cellular morphology after peptide exposure was assessed by crystal violet staining and light microscopy. All experiments were performed in triplicate.
To increase the stability of the peptide, two further sub-formulations of the original formula (L-aa, containing only L-amino acids) were created: D-aa (retro inversed, (ri)), a peptide comprised of a backward sequence of the original in silico formula, yet made up solely of D-amino acids and an analogue peptide to original in silico peptide formula, comprised of D-amino acids. D-amino acids are highly resistant to protease mediated degradation and have a low immunogenic response. The respective peptide variants were tested in the following concentrations: 7.5, 10, 15, 20 and 25 µg/ml and incubated for 3 hours.

## Ac-YGRKKRRQRRRGKTLRVAKAIYKRYIE-NH2
  cytotoxic effect / potency by crystal violet staining: cytotoxic effect
